Experimental data published in paper PMC5242348, “Triterpene Constituents of Euphorbia Erythradenia Bioss. and their Anti-HIV Activity” (Iranian Journal of Pharmaceutical Research : IJPR, 2016).

Experiments:
[1] = XTT-based cytotoxicity assay; settings: human
[2] = test system: single cycle replicable HIV-1 (SCR HIV-1) virions; assay: microbe, parasite or virus in culture; settings: Human immunodeficiency virus 1, HeLa, 48 h, read-out: Anti HIV activity IC50 (concentration causing 50% HIV activity inhibition)
[3] = test system: single cycle replicable HIV-1 (SCR HIV-1) virions; settings: ratio of CC50 (Hela, XTT) to IC50 (p24)

## CC=C(C)C(=O)OC1C(CO)C(O)C2C(=O)C3(CC(C)C(OC(=O)CCC)C13)C(C)(OC(=O)c1cccnc1)CC1(OC(C)=O)C2C1(C)C (stereo not shown) [Compound 8, 13-acetyl-5-angeloyl-11-nicotinyl-3-butanoyl-1,2,6,7-tetrahydroingenol]
[1]
  CC50 at 3 days: 168 nM
[2]
  IC50: 44 nM

## CC=C(C)C(=O)OC1C(COC(=O)c2cccnc2)C(OC(C)=O)C2C(=O)C3(CC(C)C(OC(=O)CC)C13)C(C)(O)CC1(OC(C)=O)C2C1(C)C (stereo not shown) [Compound 6, 7,13-diacetyl-5-angeloyl-20-nicotinyl-3-propionyl-1,2,6,7-tetrahydroingenol]
[3]
  Therapeutic index TI (CC50/IC50): 11.75
[1]
  CC50 at 3 days: 84 nM
[2]
  IC50: 7 nM

## CC(C/C=C\C(C)(C)O)C1CC[C@@]2(C)C3CCC4C(C)(C)[C@@H](O)CC[C@@]45C[C@@]35CC[C@]12C (stereo partly drawn) [Compound 2, Cycloart-23-ene-3β,25-diol]
[3]
  Therapeutic index TI (CC50/IC50): 3.67
[1]; HeLa cells
  CC50 at 3 days: 22 nM
[2]
  IC50: 6 nM

## CC1(C)CC[C@]2(C(=O)O)CC[C@]3(C)C(=CC[C@@H]4[C@@]5(C)CC[C@H](O)C(C)(C)[C@@H]5CC[C@]43C)[C@@H]2C1 [Compound 4, Oleanolic acid]
[3]
  Therapeutic index TI (CC50/IC50): 2.44
[1]
  CC50 at 3 days: 22 nM
[2]
  IC50: 9 nM

## Cc1ccnc2c1NC(=O)c1cccnc1N2C1CC1 [Nevirapine, reference compound]
[3]
  Therapeutic index TI (CC50/IC50): > 105.31
[1]
  CC50 at 3 days: 6740 nM
[2]
  IC50: < 64 nM

## CCC(=O)OC1C(C)CC23C(=O)C(C(OC(=O)c4ccccc4)C(COC(=O)c4cccnc4)C(OC(C)=O)C12)C1C(C)(C)C1(OC(C)=O)CC3(C)O (stereo not shown) [Compound 7, 5,13-diacetyl-7-benzoyl-20-nicotinyl-3-propionyl-1,2,6,7-tetrahydroingenol]
[1]
  CC50 at 3 days: 3260 nM
[2]
  IC50: 8 nM

## C=C(C)C(O)CCC(C)C1CC[C@@]2(C)C3CCC4C(C)(C)[C@@H](O)CC[C@@]45C[C@@]35CC[C@]12C (stereo partly shown) [1a & 1b]
[3]
  Therapeutic index TI (CC50/IC50): 4.67
[1]; HeLa cells
  CC50 at 3 days: 14 nM
[2]
  IC50: 3 nM

## CC=C(C)C(=O)OC1C(COC(=O)c2cccnc2)C(O)C2C(=O)C3(CC(C)C(OC(=O)CCC)C13)C(C)(O)CC1(OC(C)=O)C2C1(C)C (stereo not shown) [Compound 5, 13-acetyl-3-butanoyl-5-angeloyl-20-nicotinyl-1,2,6,7-tetrahydroingenol]
[3]
  Therapeutic index TI (CC50/IC50): 0.11
[1]
  CC50 at 3 days: 4 nM
[2]
  IC50: 36 nM
